Results reported in patent publication US9630947B2, “Therapeutic compounds and related methods of use” (OTSUKA PHARMACEUTICAL CO., LTD., priority 2009, dated 2017).
pIC50: −log10 of the molar value.

These compounds were tested against T1, purified STEP46 enzyme (Homo sapiens, UniProt P54829) (assay: STEP46 biochemical assay (DiFMUP fluorescence phosphatase assay)). Conditions: DiFMUP 10 μM, read-out: STEP IC50.
T1 sequence (P54829 1-565): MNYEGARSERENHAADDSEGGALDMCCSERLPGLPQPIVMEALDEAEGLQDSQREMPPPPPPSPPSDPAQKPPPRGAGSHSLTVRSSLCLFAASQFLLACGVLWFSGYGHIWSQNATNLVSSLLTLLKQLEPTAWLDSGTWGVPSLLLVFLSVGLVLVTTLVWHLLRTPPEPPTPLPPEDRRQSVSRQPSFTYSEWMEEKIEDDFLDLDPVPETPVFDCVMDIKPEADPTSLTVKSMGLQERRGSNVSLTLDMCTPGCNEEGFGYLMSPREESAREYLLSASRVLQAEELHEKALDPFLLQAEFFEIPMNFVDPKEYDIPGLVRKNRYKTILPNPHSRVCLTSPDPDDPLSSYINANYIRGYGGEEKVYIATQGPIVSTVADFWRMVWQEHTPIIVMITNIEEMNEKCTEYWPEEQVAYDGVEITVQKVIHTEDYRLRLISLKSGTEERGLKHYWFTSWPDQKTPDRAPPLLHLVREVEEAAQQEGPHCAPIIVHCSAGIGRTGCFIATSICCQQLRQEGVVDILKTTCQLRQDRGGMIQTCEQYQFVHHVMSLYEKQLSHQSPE
Method in brief: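 Compounds preincubated 30 min at room temperature with purified STEP46 (1 ng/well) in 50 mM Hepes, 1 mM DTT, 0.02% Brij35, then 10 μM DiFMUP (final) added for 90 min at 27 °C; 2% DMSO, fluorescence at 360/460 nm. IC50 from four-parameter fit of % inhibition; activators reported as negative % inhibition at 25, 50 and 100 uM.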

Row | SMILES | pIC50
1 | CNc1c(-c2cccc(C#N)c2)ccc2nc(-c3cccnc3)nc(C)c12 [Compound 1423] | < 5.00
2 | COCCN(C)c1nc(-c2cccnc2)nc2ccc(-c3cccc(F)c3F)cc12 [Compound 1391] | < 5.00
3 | Cc1cccc2c(Nc3ccc(Cl)c(Cl)c3)nc(-c3cnccn3)nc12 [Compound 1178] | 5.00 to 6.00
4 | CN(C)c1nc(-c2cccnc2)nc2ccc(-c3ccc(F)cc3F)cc12 [Compound 1381] | 5.00 to 6.00
5 | NC(=O)c1ccc(-c2ccc3c(Nc4ccc(F)c(Cl)c4)nc(-c4cccnc4)nc3c2)cc1 [Compound 684] | 5.00 to 6.00
6 | Fc1ccc(Nc2nc(-c3cccnc3)nc3ccc(-c4ccsc4)cc23)cc1Cl [Compound 648] | 5.00 to 6.00
7 | N#Cc1cccc(Nc2nc(-c3cnccn3)nc3ccc(Cl)cc23)c1 [Compound 1158] | 5.00 to 6.00
8 | Fc1ccc(-c2ccc3nc(-c4cccnc4)nc(Nc4ccc(F)c(Cl)c4)c3c2)c(F)c1 [Compound 671] | 5.00 to 6.00
9 | CCOc1ccc2nc(-c3cccnc3)nc(Nc3nc(-c4cccc(F)c4F)cs3)c2c1 [Compound 470] | 5.00 to 6.00
10 | COc1ccc2nc(-c3cccnc3)nc(Nc3nc(-c4cccc(OC(F)(F)F)c4)cs3)c2c1 [Compound 455] | 5.00 to 6.00
11 | CNc1nc(-c2cccnc2)nc2ccc(-c3cccc(-c4ccccc4)c3)cc12 [Compound 1346] | 5.00 to 6.00
12 | CNc1nc(-c2cccnc2)nc2cc(-c3cccc(C#N)c3)c(C)cc12 [Compound 1409] | 5.00 to 6.00
13 | COc1cccc(-c2ccc3nc(-c4cccnc4)nc(Oc4ccc(F)c(F)c4)c3c2)c1 [Compound 392] | 5.00 to 6.00
14 | COc1ccc2nc(-c3cccnc3)nc(Nc3ccc4scnc4c3)c2c1 [Compound 320] | 5.00 to 6.00
15 | CNc1nc(-c2cccnc2)nc2cc(-c3ccc(OC)cc3)c(C)cc12 [Compound 1413] | 5.00 to 6.00
16 | CNc1c(-c2cc(F)cc(F)c2)ccc2nc(-c3cccnc3)nc(C)c12 [Compound 1422] | 5.00 to 6.00
17 | COc1ccc2nc(-c3ccnnc3)nc(Nc3ccc(F)c(F)c3)c2c1 [Compound 1186] | 5.00 to 6.00
18 | COc1ccc2c(Nc3ccc(F)c(Cl)c3)nc(-c3ccnnc3)nc2c1 [Compound 1155] | 5.00 to 6.00
19 | CNc1nc(-c2cccnc2)nc2cc(-c3ccc(F)cc3)ccc12 [Compound 1360] | 5.00 to 6.00
20 | FC(F)Oc1cccc(Nc2nc(-c3ccnnc3)nc3cc(Cl)ccc23)c1 [Compound 1200] | 5.00 to 6.00
21 | CN(C)c1nc(-c2cccnc2)nc2ccc(-c3ccccc3C#N)cc12 [Compound 1337] | 5.00 to 6.00
22 | CN(C)c1nc(-c2cccnc2)nc2ccc(-c3cccc(F)c3F)cc12 [Compound 1380] | 5.00 to 6.00
23 | Fc1ccc(Nc2nc(-c3cccnc3)nc3ccc(-c4ccc(Cl)cc4)cc23)cc1Cl [Compound 630] | 5.00 to 6.00

Row | SMILES | pIC50
24 | COc1ccc2nc(-c3cccnc3)nc(Nc3ccc4ncoc4c3)c2c1 [Compound 341] | 5.00 to 6.00
25 | CCOc1ccc2nc(-c3cccnc3)nc(Nc3ccc4nonc4c3)c2c1 [Compound 334] | 5.00 to 6.00
26 | CNc1nc(-c2cccnc2)nc2ccc(-c3cc(OC)ccc3OC)cc12 [Compound 1356] | 5.00 to 6.00
27 | Fc1ccc(Nc2nc(-c3cnccn3)nc3ccc(Cl)cc23)cc1Cl [Compound 1159] | 5.00 to 6.00
28 | COc1ccc2nc(-c3cccnc3)nc(Nc3nnc(-c4ccc(Br)cc4)s3)c2c1 [Compound 428] | 5.00 to 6.00
29 | COc1ccc2nc(-c3cccnc3)nc(Nc3ccc4ccoc4c3)c2c1 [Compound 314] | 5.00 to 6.00
30 | CCOc1ccc2nc(-c3cccnc3)nc(Nc3nc(-c4cc(F)ccc4F)cs3)c2c1 [Compound 471] | 5.00 to 6.00
31 | N#Cc1cccc(Nc2nc(-c3cnccn3)nc3ccccc23)c1 [Compound 1221] | < 5.00
32 | CNc1nc(-c2cccnc2)nc2c(C)cc(-c3ccc(C#N)cc3)cc12 [Compound 1279] | 5.00 to 6.00
33 | COc1ccc2nc(-c3cccnc3)nc(Nc3cccc4c3OC(F)(F)O4)c2c1 [Compound 339] | 5.00 to 6.00
34 | CNc1nc(-c2cccnc2)nc2cc(-c3ccccc3F)ccc12 [Compound 1358] | 5.00 to 6.00
35 | COc1ccc2nc(-c3cccnc3)nc(Nc3nc(-c4cccc(F)c4)cs3)c2c1 [Compound 441] | 5.00 to 6.00
36 | Fc1ccc(-c2ccc3nc(-c4cccnc4)nc(Nc4ccc(F)c(Cl)c4)c3c2)cc1F [Compound 672] | 5.00 to 6.00
37 | COc1ccccc1-c1ccc2c(Nc3ccc(F)c(Cl)c3)nc(-c3cccnc3)nc2c1 [Compound 682] | 5.00 to 6.00
38 | Fc1ccc(Nc2nc(-c3cncnc3)nc3ccccc23)cc1Cl [Compound 1230] | 5.00 to 6.00
39 | Fc1ccc(Nc2nc(-c3ccnnc3)nc3cc(Cl)ccc23)cc1F [Compound 1202] | 5.00 to 6.00
40 | CN(C)c1nc(-c2cccnc2)nc2ccc(-c3cccc([N+](=O)[O-])c3)cc12 [Compound 1335] | 5.00 to 6.00
41 | NC(=O)c1ccccc1Nc1nc(-c2cnccn2)nc2cc(Cl)ccc12 [Compound 1143] | 5.00 to 6.00
42 | CNc1nc(-c2cccnc2)nc2c(C)c(-c3ccc(F)cc3)ccc12 [Compound 1447] | < 5.00
43 | COc1ccc2nc(-c3ccnnc3)nc(Nc3cccc(OC(F)(F)F)c3)c2c1 [Compound 1188] | 5.00 to 6.00
44 | CNc1nc(-c2cccnc2)nc2ccc(-c3ccc(OC)cc3)c(C)c12 [Compound 1458] | < 5.00
45 | N#Cc1cccc(Nc2nc(-c3ccnnc3)nc3ccccc23)c1 [Compound 1217] | 5.00 to 6.00

Other lines, results leading:

Row | pIC50 | SMILES
46 | 5.00 to 6.00 | COc1ccc2nc(-c3cccnc3)nc(Nc3ccc4ncsc4c3)c2c1 [Compound 296]
47 | > 6.00 | NC(=O)c1ccccc1Nc1nc(-c2cccnc2)nc2cc(-c3ccccc3F)ccc12 [Compound 702]
48 | 5.00 to 6.00 | Cc1cccc2c(Nc3cccc(OC(F)F)c3)nc(-c3ccnnc3)nc12 [Compound 1168]
49 | > 6.00 | Fc1cccc(-c2ccc3c(Nc4ccc(F)c(Cl)c4)nc(-c4cccnc4)nc3c2)c1 [Compound 688]
50 | 5.00 to 6.00 | Cc1cccc2c(Nc3cccc(C#N)c3)nc(-c3cnccn3)nc12 [Compound 1181]
51 | 5.00 to 6.00 | Fc1ccc(Nc2nc(-c3ccncn3)nc3ccccc23)cc1Cl [Compound 1206]
52 | > 6.00 | Clc1cc(Cl)cc(Nc2nc(-c3ccnnc3)nc3ccccc23)c1 [Compound 1223]
53 | 5.00 to 6.00 | COc1cccc(-c2ccc3nc(-c4cccnc4)nc(Oc4ccc(Cl)c(Cl)c4)c3c2)c1 [Compound 391]
54 | > 6.00 | Fc1ccc(Nc2nc(-c3cnccn3)nc3cc(Cl)ccc23)cc1Cl [Compound 1141]
55 | > 6.00 | COc1ccc2nc(-c3cccnc3)nc(Nc3ccc4ccc(=O)[nH]c4c3)c2c1 [Compound 325]
56 | > 6.00 | NC(=O)c1ccccc1Nc1nc(-c2cccnc2)nc2cc(Br)ccc12 [Compound 699]
57 | > 6.00 | CCOc1ccc2nc(-c3cccnc3)nc(Nc3ccc4c(c3)NC(=O)CC4)c2c1 [Compound 337]
58 | > 6.00 | CNC(=O)c1ccc(-c2ccc3nc(-c4cccnc4)nc(Nc4ccc(F)c(Cl)c4)c3c2)cc1 [Compound 667]
59 | > 6.00 | COc1ccc2nc(-c3cccnc3)nc(Nc3ccc4c(C)cc(=O)oc4c3)c2c1 [Compound 316]
60 | > 6.00 | N#Cc1ccccc1-c1ccc2nc(-c3cccnc3)nc(Nc3ccc(F)c(Cl)c3)c2c1 [Compound 639]
61 | > 6.00 | COc1ccc2nc(-c3cccnc3)nc(Nc3ccc4c(C)cc(=O)[nH]c4c3)c2c1 [Compound 333]
62 | > 6.00 | Cc1ccc(F)c(-c2ccc3nc(-c4cccnc4)nc(Nc4ccc(F)c(Cl)c4)c3c2)c1 [Compound 669]
63 | > 6.00 | COc1ccc2nc(-c3cccnc3)nc(Nc3nc(-c4ccc(F)cc4)cs3)c2c1 [Compound 419]
64 | > 6.00 | O=[N+]([O-])c1cccc(-c2ccc3nc(-c4cccnc4)nc(Nc4ccc(F)c(Cl)c4)c3c2)c1 [Compound 635]
65 | > 6.00 | Clc1ccc(Nc2nc(-c3ccnnc3)nc3ccccc23)cc1Cl [Compound 1215]
66 | > 6.00 | Fc1ccc(Nc2nc(-c3cccnc3)nc3ccc(-c4ccncc4)cc23)cc1Cl [Compound 651]
67 | > 6.00 | COc1ncc(-c2ccc3nc(-c4cccnc4)nc(Nc4ccc(F)c(Cl)c4)c3c2)cn1 [Compound 666]
68 | > 6.00 | c1cncc(-c2ccc3nc(-c4cccnc4)nc(Nc4ccc5ccsc5c4)c3c2)c1 [Compound 313]
69 | > 6.00 | COc1ccc(-c2ccc3nc(-c4cccnc4)nc(Nc4ccc(F)c(Cl)c4)c3c2)c(OC)n1 [Compound 655]
70 | > 6.00 | CCOc1ccc2nc(-c3cccnc3)nc(Nc3ccc4ccc(=O)[nH]c4c3)c2c1 [Compound 335]
71 | > 6.00 | CNc1nc(-c2cccnc2)nc2c(C)cc(-c3cccc(C#N)c3)cc12 [Compound 1281]
72 | > 6.00 | COc1cc(-c2ccc3nc(-c4cccnc4)nc(Nc4ccc(F)c(Cl)c4)c3c2)ccc1C [Compound 670]
73 | > 6.00 | Fc1ccc(Nc2nc(-c3cccnc3)nc3ccc(-c4ccccc4F)cc23)cc1Cl [Compound 641]
74 | > 6.00 | Clc1ccc2c(Nc3ccc(Cl)c(Cl)c3)nc(-c3cnccn3)nc2c1 [Compound 1140]
75 | > 6.00 | Fc1ccc(F)c(-c2ccc3c(Nc4ccc(F)c(Cl)c4)nc(-c4cccnc4)nc3c2)c1 [Compound 676]
